This note sets out measurements from patent US20260285816A1, “Piperazinyl-Modified Quinazolinyl-Aryl Urea Derivative, And Preparation Method And Use Thereof” (Guangxi Normal University, priority 2025, published 2026).

The test system of data set [1] is BxPC-3 cells. As to the kind of experiment: Cell cycle analysis (PI staining, flow cytometry), BxPC-3. The data set is classed as cell-based, human. The procedure: (§1) Tumor cells (T24, UM-UC-3, 143B, BxPC-3) in logarithmic growth phase were inoculated into 70 mm culture dishes. After 70% confluency was reached, medium was replaced and treated with: compound 8-1j, ferroptosis inducer Erastin, or cell cycle blocker paclitaxel (PTX) for a specified duration. Post-incubation, cells were trypsinized, collected, centrifuged, and washed 2 times with pre-cooled phosphate-buffered saline (PBS). Pre-cooled 75% ethanol was added dropwise during vortexing for fixation at −20° C. overnight. After centrifugation (10 min), supernatant was discarded. Cells were rewashed with PBS and centrifuged. Following kit instructions (Beyotime, C1052, China), 0.5 mL staining buffer, 25 μL PI (propidium iodide) stain (20×), and 10 μL RNase A (50×) were mixed per sample. Cells were resuspended in PI staining solution and incubated at 37° C. in dark for 30 min (gentle shaking every 10 min). Samples were filtered through 200-mesh filters, transferred into a flow tube, and analyzed via BD FACSVerse flow cytometer. All experiments were conducted in 3 repeats. Compounds 8-2h and 8-2j were evaluated identically.

The subject of data set [2] is human pancreatic cancer BxPC-3. The data set can be described thus: BxPC-3 tumor-bearing nude mouse model. Details: Tumor growth control, high dose: dose or concentration left out as unconfirmed. The data set is classed as in vivo, nude mice.
The test system of data set [3] is T24 cells. The data set can be described thus: Cell cycle analysis (PI staining, flow cytometry), T24. It counts as cell-based, human. As for the experimental part:
as §1
(Flow cytometry measures light scatter and fluorescence of single cells or particles in a stream.)

The subject of data set [4] is FoxM1, KIF20A, Nrf2, xCT, GPx4, FTH1, HO-1, IRP2, CD71 in bladder cancer T24 cells. As to the kind of experiment: Western blot of cell cycle- and ferroptosis-related proteins. The data set is classed as cell-based, human. The procedure:
Experimental method: bladder cancer T24 cells in logarithmic growth phase were inoculated into 100 mm culture dishes. After 70% confluency was reached, medium was replaced and treated with compound 8-1j or ferroptosis inhibitor Fer-1. Post-co-incubation, cells were trypsinized, collected, and washed with pre-cooled PBS. 0.2 mL of RIPA cell lysis buffer was added to each tube, mixed thoroughly, and transferred to a 1.5 mL centrifuge tube, and lysed on ice with agitation for 30 min. Lysates were centrifuged at 12,000 rpm (4° C., 10 min) to collect supernatants. Supernatants were mixed with 5×SDS-PAGE protein loading buffer, heated at 95° C. for 7 min, and stored at −80° C. SDS-PAGE (sodium dodecyl sulfate-polyacrylamide gel electrophoresis) was conducted at 80 V until entry into separating gel, then at 120 V until bromophenol blue reached the gel bottom. Gels were cut according to molecular weight indicated by Marker, transferred to membranes, blocked, and then immune reaction was performed. Protein bands were visualized by an enhanced chemiluminescence (ECL) detection system. Band densities were analyzed using ImageJ software. Three repeated experiments were conducted.
In general terms: In western blotting, separated proteins are transferred to a membrane and probed.

Data set [5] relates to human osteosarcoma 143B. As to the kind of experiment: 143B tumor-bearing nude mouse model. The data set is classed as in vivo, nude mice. The following applies: 40 mg/kg oral gavage, every 2 d, 42 d. The procedure: (§2) Experimental method: bladder cancer J82 cells in logarithmic growth phase were trypsinized, collected, and then centrifuged, and resuspended in serum-free DMEM medium after discarding an original medium. Cell density was adjusted, and 0.2 mL cell suspension was subcutaneously inoculated into 5-week-old BALB/c-nu mice (sex-balanced, 18-20 g) under a laminar flow clean bench. Post-inoculation, bleeding at injection sites was monitored. When tumors reached 50-80 mm^3, nude mice with good tumor growth status were randomized into 5 groups (n=6/group) for intraperitoneal administration. Tumor volume and body weight were recorded on Day 0. […] Dosing occurred every 2 d for 42 d. After administering the drug, mice were monitored for diarrhea, anorexia, lethargy, and allergic reactions (e.g., pruritus). The body weight of nude mice was measured every 2 days, and the long and short diameters of the tumors in nude mice were measured by using a vernier caliper, then the recording was finished.
Construction of the human osteosarcoma 143B tumor-bearing nude mouse model followed similar procedures, with identical dosing frequency but administration route changed to oral gavage. Specifically: When tumors reached 60-90 mm^3, mice were randomized into 4 groups (n=6). […]

Data set [6] concerns bladder cancer J82 cells. The data set can be described thus: J82 tumor-bearing nude mouse model. The data set is classed as in vivo, BALB/c-nu mice. As for the experimental part: as §2
0.9% normal saline was added thereto to obtain a solution, which was sterilized under UV light for 30 min. Administration volume was 10 mL/kg per mouse. The preparation contained PEG400 and 0.9% normal saline at a 3:1 volume ratio, with 2% (v/v) DMA.

Data set [7] deals with 143B cells. The data set can be described thus: Cell cycle analysis (PI staining, flow cytometry), 143B. The data set is classed as cell-based, human. The procedure:
as §1

[8] abbreviates: 20 mg/kg intraperitoneal, every 2 d for 42 d.

With `CCc1cccc(CC)c1NC(=O)Nc1cccc(CNc2ncnc3cc(OC)c(OCCCCCCN4CCC(CN5CCN(c6ccccn6)CC5)CC4)cc23)c1` [Compound 8-2h, N-(3-(((7-methoxy-6-((6-(4-((4-(pyridin-2-yl)piperazin-1-yl)methyl)piperidin-1-yl)hexyl)oxy)quinazolin-4-yl)amino)methyl)phenyl)-N′-(2,6-diethylphenyl)urea], the “Cell cycle arrest phase, high concentration” value in data set [1] (high concentration (>6 μM)) is listed as “G2/M arrest”. The “Cell cycle arrest phase, low concentration” value in data set [1] (low concentration (e.g., 3 μM)) is “G0/G1 arrest”. Also, the “Effect of co-administration with PTX on cell cycle” value in data set [1] (with PTX) is given as “Synergistic effects”. For the same compound, in data set [2], the “Tumor growth control, high dose” value was “controls tumor growth by Day 28”. Moreover, in data set [2] (high dose, oral gavage, up to 42 d), the “Tumor after continued administration” value is reported as “significantly shrank”. The Toxicity observations result in data set [2] (oral gavage, gemcitabine 24 mg/kg, 8-2h 12, 24, 36 mg/kg) is “no toxicity”.

`COc1cc2ncnc(NCc3cccc(NC(=O)Nc4ccc(C(C)(C)C)cc4)c3)c2cc1OCCCCCCN1CCN(CCN2CCOCC2)CC1` [Compound 8-1j, N-(3-(((7-methoxy-6-((6-(4-(2-morpholinoethyl)piperazin-1-yl)hexyl)oxy)quinazolin-4-yl)amino)methyl)phenyl)-N′-(4-tert-butylphenyl)urea]: the “Effect of co-administration with PTX on cell cycle” value was “Synergistic effects” in data set [3] (T24, with PTX) and “Synergistic effects” in data set [7] (143B, with PTX). In addition, the “Cell cycle arrest phase” value in data set [3] (T24 cells (FIG. 44)) and in data set [7] (143B cells (FIG. 46)) was “arrest cell cycle at G2/M phase” throughout. In addition, in data set [4], the “Ferroptosis-related proteins HO-1, IRP2, and CD71 expression” value is given as “upregulating”. The “FoxM1, KIF20A, Nrf2, xCT, GPx4, and FTH1 expression” value in data set [4] (concentration-dependently) is listed as “significantly downregulates”. Besides, the Tumor inhibition result in data set [5] is “significantly stronger tumor inhibition than positive control Apat”. Moreover, the “Body weight and tolerability observations” value in data set [6] (setting [8]) is on record as “Mild weight loss occurs without anorexia, diarrhea, or pruritus”. Moreover, the “Tumor growth rates vs. vehicle control and equi-dose positive control” value in data set [6] (setting [8]) is listed as “significantly lower”. Further, in data set [6] (at 20 mg/kg intraperitoneal), the “Anti-tumor efficacy compared with 9g (A-2)” value is “surpassed that of 9g (A-2)”.
